Results taken from article PMC6947424, “New Targeted Gold Nanorods for the Treatment of Glioblastoma by Photodynamic Therapy” (Journal of Clinical Medicine, 2019).
Residues, ends and D or L forms follow the SMILES beside them. *: point of attachment. Pyropheophorbide(a) = C=Cc1c(C)c2cc3nc(c4c5[nH]c(cc6nc(cc1[nH]2)C(C)=C6CC)c(C)c5C(=O)C4)[C@@H](CCC(=O)*)[C@@H]3C; Hexanoyl(6-maleimido) = O=C1C=CC(=O)N1CCCCCC(=O)*

How the values were obtained:
[1] = tested on: U87 glioblastoma cells; assay: MTT cytotoxicity in the dark, U87 cells; type: cell-based; settings: 24 h in the dark, n = 3
Experimental: (§1) For in vitro experiments, U87 glioblastoma cells (ATCC® HTB-14™) were cultivated in Dulbecco’s modified eagle’s medium (DMEM) supplemented with sodium pyruvate 1.5 mM, MEM AA, MEM NE AA, MEM vitamins, L-Ser 14 μg·mL^−1, L-asp 25 μg·mL^−1, L-Glu 2.5 mM, 100 U·mL^−1 penicillin, 100 μg·mL^−1 streptomycin, and 20% FCS. They were cultured under standard cell culture conditions while incubated in 5% CO2/80% humidified air at 37 °C.
Cell survival of U87 after incubation with the hybrid AuNRs, the PS-peptide conjugate or the free PS in the dark (cytotoxicity) or after light exposure (phototoxicity) was investigated using an MTT assay as previously described. […] However, the phototoxicity induced by those molecules was assessed by exposing the cells to light at a fluence of 10 J·cm^−2 (fluence rate 4.54 mW·cm^−2, duration: 36 min 42 s) using a 652 nm diode laser system (Ceralas, Biolytec, Jena, Germany). […] The cell survival was measured by MTT assay where the cells were incubated for 3 h at 37 °C with 0.4 mg·mL^−1. […] The absorption of formazan was measured at 540 nm with a background subtraction at 630 nm using a Multiskan Ascent plate reader (Thermo Scientific, Vantaa, Finland). […]
All in vitro experiments were realized in triplicate and expressed as a percentage of variation from control cells. […]

[2] = UV-vis absorption; type: physicochemical; settings: ethanol, Soret band
Experimental: The setup and the protocol to evaluate the photophysical characterizations including the absorption, fluorescence, and singlet oxygen emission spectra in addition to the fluorescence and singlet oxygen lifetimes have been previously described by our team. The absorption spectra were recorded on a UV-3600 UV–vis double beam spectrophotometer (Shimadzu, Marne La Vallée, France) in the wavelength range of 200-800 nm. The measurements were performed on the molecules dispersed in ethanol in quartz cuvettes with an optical path of 10 mm. The fluorescence spectra were recorded on a Horiba Jobin Yvon Fluorolog-3 (FL3-222) spectrofluorimeter equipped with a 450W xenon lamp, a thermostated cell compartment (25 °C), a R928 (Hamamatsu, Massy, France) UV–vis photomultiplier and a liquid nitrogen cooled InGaAs infrared detector (DSS-16A020L Electro-Optical System Inc., Phoenixville, PA, USA). The excitation spectrometer used is a SPEX double grating monochromator (1200 grooves per mm blazed at 330 nm). The fluorescence was measured using the UV–vis detector through a SPEX double grating monochromator (600 grooves per mm blazed at 500 nm). The singlet oxygen production was measured using the IR detector through a SPEX double grating monochromator (600 grooves per mm blazed at 1 μm).
The photophysical properties at the different synthetic stages of the hybrid AuNRs@PEG-MI-K(Pyro)DKPPR-OH, including the peptide derivatives as intermediates, were studied and compared to that of free Pyro. These properties include the UV-vis absorption, the florescence emission (quantum yield (Φf) and lifetime (τf)) and the ^1O2 production (quantum yield (ΦΔ) and lifetime (τΔ)). To determine these properties, the optical density (OD) of the Soret band of the Pyro component (412 nm) was adjusted at about 0.2. Controls, such as TPP dissolved in toluene, as a standard for fluorescence emission, and RB dissolved in ethanol, as a standard for ^1O2 production, were used. Ethanol was chosen to dissolve the studied molecules since it is a convenient solvent for the detection of fluorescence and ^1O2 emission. […]

[3] = tested on: U87 glioblastoma cells; assay: MTT phototoxicity after light exposure, U87 cells; type: cell-based; settings: 24 h; for decrease of cell viability: then 652 nm, 10 J/cm2 (4.54 mW·cm−2), MTT after further 24 h, triplicate; for PDT efficacy / photodynamic activity (in words): 10, 20 and 30 µM PS, 652 nm, 10 J/cm2, MTT
Experimental: as §1
Cell survival of U87 after incubation with the hybrid AuNRs, the PS-peptide conjugate or the free PS in the dark (cytotoxicity) or after light exposure (phototoxicity) was investigated using an MTT assay as previously described. Briefly, U87 cells were plated into 48-well plates at an initial cell density of 2 × 10^4 cells/cm^2 in culture medium, incubated at 37 °C during 48 h. Old culture media were discarded and the wells were filled with 250 µL of culture medium containing different concentrations of the tested molecules (AuNRs@PEG-MI-K(Pyro)DKPPR-OH, MI-K(Pyro)DKPPR-OH and Pyro) at a final PS concentration of 10, 20, and 30 μM. After 24 h, the wells were washed three times with HBSS and filled with culture medium. To evaluate the cytotoxicity of the tested molecules towards the U87 cells, one plate was kept incubated in the dark. However, the phototoxicity induced by those molecules was assessed by exposing the cells to light at a fluence of 10 J·cm^−2 (fluence rate 4.54 mW·cm^−2, duration: 36 min 42 s) using a 652 nm diode laser system (Ceralas, Biolytec, Jena, Germany). The cells were further incubated for 24 h. The cell survival was measured by MTT assay where the cells were incubated for 3 h at 37 °C with 0.4 mg·mL^−1. After that, the excess of MTT was discarded and the formazan crystals that developed in the living cells were dissolved by DMSO. The absorption of formazan was measured at 540 nm with a background subtraction at 630 nm using a Multiskan Ascent plate reader (Thermo Scientific, Vantaa, Finland). Experiments were carried out in triplicates.
All in vitro experiments were realized in triplicate and expressed as a percentage of variation from control cells. The results were given as mean ± standard deviation (SD). Differences among groups were evaluated using variance analysis (Anova) followed by Bonferroni test (GraphPad Prism 6.0 software, San Diego, CA, USA). A value of p < 0.05 was considered as statistically significant. * Versus control cells.

**Q.** For `C=Cc1c(C)c2cc3nc(c4c5[nH]c(cc6nc(cc1[nH]2)C(C)=C6CC)c(C)c5C(=O)C4)[C@@H](CCC(=O)NCCCC[C@H](NC(=O)CCCCCN1C(=O)C=CC1=O)C(=O)N[C@@H](CC(=O)O)C(=O)N[C@@H](CCCCN)C(=O)N1CCC[C@H]1C(=O)N1CCC[C@H]1C(=O)N[C@@H](CCCNC(=N)N)C(=O)O)[C@@H]3C` [MI-K(Pyro)DKPPR-OH] ({Hexanoyl(6-maleimido)}-K(Pyropheophorbide(a))DKPPR-OH), which dark cytotoxicity ([1]; even at PS concentration of 30 µM) is on record?
**A.** no cytotoxic effect

**Q.** And the λmax [2]?
**A.** 412 nm

**Q.** And the “decrease of cell viability” value ([3]; 10 µM PS)?
**A.** 25%

**Q.** And the “decrease of cell viability” value ([3]; 20 µM PS)?
**A.** 46%

**Q.** What about the “decrease of cell viability” value ([3]; 30 µM PS) of the same compound?
**A.** 58%

**Q.** What about the “PDT efficacy / photodynamic activity (in words)” value [3] of the same compound?
**A.** lower photodynamic activity

**Q.** For `C=Cc1c(C)c2cc3nc(c4c5[nH]c(cc6nc(cc1[nH]2)C(C)=C6CC)c(C)c5C(=O)C4)[C@@H](CCC(=O)O)[C@@H]3C` [Pyro, pyropheophorbide-a, reference compound], which “dark cytotoxicity (metabolic activity of U87 cells)” value ([1]; 10 µM PS) is on record?
**A.** decrease the metabolic activity of U87 cells

**Q.** And the λmax [2]?
**A.** 412 nm

**Q.** What about the “PDT efficacy / photodynamic activity (in words)” value [3] of the same compound?
**A.** low PDT efficacy
